From patent US20250034216A1, “STEREOSELECTIVE COVALENT LIGANDS FOR ONCOGENIC AND IMMUNOLOGICAL PROTEINS” (The Scripps Research Institute, priority 2021, published 2025)

Assays:
Assay in all cases: IA-DTB cysteine engagement
Type in all cases: binding
Conditions in all cases: 22Rv1 cells, 20 μM probe, 1 h, relative to DMSO
HIRA_C673 = target: T1, HIRA_C673 (Homo sapiens, UniProt P54198)
T1 construct: endogenous in cells; host or cells: 22Rv1
How it was run: (§1)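 Read-out is TMT-based cysteine engagement, expressed as each reporter ion intensity divided by the average of the DMSO channels. Before that, probe-treated cell lysates were capped with IA-DTB, digested, enriched on streptavidin and TMT-tagged. PSMs with DMSO summed intensity <10,000 or DMSO CV >0.5 were excluded.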

C3orf33_C275 = target: T2, C3orf33_C275 (Homo sapiens, UniProt Q6P1S2)
T2 construct: endogenous in cells; host or cells: 22Rv1
T2 sequence (Q6P1S2 1-294): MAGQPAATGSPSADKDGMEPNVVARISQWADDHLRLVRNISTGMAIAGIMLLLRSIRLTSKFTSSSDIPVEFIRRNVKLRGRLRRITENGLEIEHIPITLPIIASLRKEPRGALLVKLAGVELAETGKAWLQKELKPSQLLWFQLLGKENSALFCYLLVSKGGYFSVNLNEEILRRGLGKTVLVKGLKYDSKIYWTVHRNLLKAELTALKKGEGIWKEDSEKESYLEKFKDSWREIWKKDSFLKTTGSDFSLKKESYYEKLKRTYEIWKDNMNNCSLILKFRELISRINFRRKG
How it was run: as §1

SLC12A8_C660 = target: T3, SLC12A8_C660 (Homo sapiens, UniProt A0AV02)
T3 construct: endogenous in cells; host or cells: 22Rv1
T3 sequence (A0AV02 1-714): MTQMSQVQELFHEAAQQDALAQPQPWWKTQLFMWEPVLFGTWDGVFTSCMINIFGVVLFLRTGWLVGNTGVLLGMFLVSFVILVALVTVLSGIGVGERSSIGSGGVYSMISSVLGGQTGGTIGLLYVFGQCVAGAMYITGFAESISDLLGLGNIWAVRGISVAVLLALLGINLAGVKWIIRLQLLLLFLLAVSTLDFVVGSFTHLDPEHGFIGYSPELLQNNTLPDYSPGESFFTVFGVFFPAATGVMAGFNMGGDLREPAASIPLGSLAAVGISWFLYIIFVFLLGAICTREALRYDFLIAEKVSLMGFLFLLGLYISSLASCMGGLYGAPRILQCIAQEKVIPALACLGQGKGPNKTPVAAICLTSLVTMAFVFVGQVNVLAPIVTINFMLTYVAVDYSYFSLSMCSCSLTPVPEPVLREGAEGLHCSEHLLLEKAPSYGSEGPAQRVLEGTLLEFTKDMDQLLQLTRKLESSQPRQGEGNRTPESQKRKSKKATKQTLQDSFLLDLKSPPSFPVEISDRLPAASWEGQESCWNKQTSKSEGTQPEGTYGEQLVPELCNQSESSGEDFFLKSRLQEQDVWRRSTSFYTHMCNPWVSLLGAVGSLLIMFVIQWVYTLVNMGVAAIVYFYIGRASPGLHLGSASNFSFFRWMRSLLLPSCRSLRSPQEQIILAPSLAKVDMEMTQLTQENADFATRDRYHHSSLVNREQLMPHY
How it was run: as §1

BCKDK_C118 = target: T4, BCKDK_C118 (Homo sapiens, UniProt O14874)
T4 construct: endogenous in cells; host or cells: 22Rv1
How it was run: as §1

APOOL_C74 = target: T5, APOOL_C74 (Homo sapiens, UniProt Q6UXV4)
T5 construct: endogenous in cells; host or cells: 22Rv1
T5 sequence (Q6UXV4 28-268): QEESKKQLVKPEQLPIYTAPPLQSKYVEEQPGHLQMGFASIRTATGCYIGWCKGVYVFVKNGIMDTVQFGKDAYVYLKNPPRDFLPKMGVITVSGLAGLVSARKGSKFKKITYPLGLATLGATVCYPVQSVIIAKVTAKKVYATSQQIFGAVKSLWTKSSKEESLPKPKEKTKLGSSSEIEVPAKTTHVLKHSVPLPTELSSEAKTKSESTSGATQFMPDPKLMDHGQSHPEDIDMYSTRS
How it was run: as §1

SYNE2_C2993 = target: T6, SYNE2_C2993 (Homo sapiens, UniProt Q8WXH0)
T6 construct: endogenous in cells; host or cells: 22Rv1
How it was run: as §1

T1 sequence (P54198 whole entry): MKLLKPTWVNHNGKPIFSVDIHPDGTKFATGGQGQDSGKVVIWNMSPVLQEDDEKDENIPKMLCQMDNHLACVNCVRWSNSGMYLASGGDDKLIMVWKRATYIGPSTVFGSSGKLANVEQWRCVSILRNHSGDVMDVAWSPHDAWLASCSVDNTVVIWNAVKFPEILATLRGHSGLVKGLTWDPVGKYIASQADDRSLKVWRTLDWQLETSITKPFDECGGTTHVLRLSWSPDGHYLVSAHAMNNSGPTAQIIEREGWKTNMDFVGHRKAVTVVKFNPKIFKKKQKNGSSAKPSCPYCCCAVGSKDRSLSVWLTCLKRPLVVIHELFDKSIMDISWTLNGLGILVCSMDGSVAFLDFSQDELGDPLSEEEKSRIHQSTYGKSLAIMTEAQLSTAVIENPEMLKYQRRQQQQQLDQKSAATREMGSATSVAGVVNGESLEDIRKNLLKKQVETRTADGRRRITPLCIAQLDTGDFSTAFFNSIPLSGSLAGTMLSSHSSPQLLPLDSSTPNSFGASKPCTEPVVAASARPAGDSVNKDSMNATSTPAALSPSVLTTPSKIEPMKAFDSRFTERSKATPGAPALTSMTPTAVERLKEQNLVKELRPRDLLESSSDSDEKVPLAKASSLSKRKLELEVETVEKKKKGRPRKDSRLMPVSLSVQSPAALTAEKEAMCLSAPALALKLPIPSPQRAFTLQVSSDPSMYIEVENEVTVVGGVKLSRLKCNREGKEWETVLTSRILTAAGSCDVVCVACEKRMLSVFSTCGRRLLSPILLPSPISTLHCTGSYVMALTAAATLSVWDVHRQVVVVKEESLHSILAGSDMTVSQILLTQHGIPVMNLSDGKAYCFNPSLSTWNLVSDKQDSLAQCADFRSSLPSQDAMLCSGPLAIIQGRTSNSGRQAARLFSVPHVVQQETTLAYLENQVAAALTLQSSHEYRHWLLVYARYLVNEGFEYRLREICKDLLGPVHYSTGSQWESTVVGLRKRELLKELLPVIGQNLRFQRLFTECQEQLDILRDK

SMILES | % engagement HIRA_C673 (HIRA_C673) [%] | % engagement C3orf33_C275 (C3orf33_C275) [%] | % engagement SLC12A8_C660 (SLC12A8_C660) [%] | % engagement BCKDK_C118 (BCKDK_C118) [%] | % engagement APOOL_C74 (APOOL_C74) [%] | % engagement SYNE2_C2993 (SYNE2_C2993) [%]
C=CC(=O)N1C[C@H](c2ccc(Br)cc2)[C@H]1C(=O)Nc1cccc2cccnc12 [MY-3A, (2S,3S)-1-acryloyl-3-(4-bromophenyl)-N-(quinolin-8-yl)azetidine-2-carboxamide] | 11.5 | 85 | 41 | 43 | 52 | 26.5
C=CC(=O)N1C[C@@H](c2ccc(Br)cc2)[C@H]1C(=O)Nc1cccc2cccnc12 [MY-1A, (2S,3R)-1-acryloyl-3-(4-bromophenyl)-N-(quinolin-8-yl)azetidine-2-carboxamide] | −12 | 83.5 | 77.5 | 55.5 | 52.75 | −20
C=CC(=O)N1C[C@H](c2ccc(Br)cc2)[C@@H]1C(=O)Nc1cccc2cccnc12 [MY-1B, (2R,3S)-1-acryloyl-3-(4-bromophenyl)-N-(quinolin-8-yl)azetidine-2-carboxamide] | 3 | 83 | 61.5 | 57.75 | 64.5 | 76.5
C=CC(=O)N1C[C@H](c2ccc(Br)cc2)[C@H]1C(=O)Nc1cccc2cccnc12 [MY-3B, (2S,3S)-1-acryloyl-3-(4-bromophenyl)-N-(quinolin-8-yl)azetidine-2-carboxamide] | 73 | 84 | 68.5 | 78.5 | 71.25 | 54.5
